Results from EP2832223A1, “HERBICIDAL COMPOSITION” (Ishihara Sangyo Kaisha, Ltd., priority 2012, dated 2013).

How the values were obtained:
Assay type in all cases: in vivo
[1] = test system: velvetleaf (Abutilon theophrasti Medic.); experiment: Test Example 14: pot test, soil and foliar treatment, visual growth inhibition; conditions: soil treatment and foliar treatment, 31st day after treatment, read-out: Growth inhibition rate (%) of velvetleaf Measured value
Text: Upland field soil was put into a 1/1,000,000 ha pot, and seeds of velvetleaf (Abutilon theophrasti Medic.) were sown. When the velvetleaf reached 4.0 to 4.3-leaf stage, seeds of velvetleaf were further sown in the same pot assuming conditions such that weeds would later grow. On the next day, predetermined amounts of ONEHOPE NYUZAI (tradename), Click (tradename), Callisto (tradename), Mikado (tradename), a wettable powder containing bicyclopyrone as an active ingredient and Clio (tradename) were diluted with water in an amount corresponding to 300 L/ha and applied for soil treatment and for foliar treatment by a small sprayer.
(§1) On the 31 st day after treatment, the state of growth of the velvetleaf was visually observed to determine the growth inhibition rate (%). The growth inhibition rate (%) (measured value) and the growth inhibition rate (%) calculated in the same manner as in the above Test Example 1 are shown in Table 14.

[2] = test system: green foxtail (Setaria viridis (L.) P.Beauv.); experiment: Test Example 3: pot test, soil treatment, visual growth inhibition; conditions: soil treatment, 27th day after treatment, read-out: Growth inhibition rate (%) of green foxtail Measured value
Experimental: Upland field soil was put into a 1/1,000,000 ha pot, and seeds of green foxtail (Setaria viridis (L.) P.Beauv.) were sown. On the next day, predetermined amounts of ONEHOPE NYUZAI (tradename), Click (tradename) and SC formulation containing sulcotrione as an active ingredient (tradename: Mikado, manufactured by Bayer CropScience) were diluted with water (in an amount corresponding to 1,000 L/ha) and applied for soil treatment by a small sprayer.
as §1, with “27th” for “31 st”, “green foxtail” for “velvetleaf”, “3.” for “14.”

[3] = test system: annual ragweed (Ambrosia artemisiifolia L.); experiment: Test Example 11: pot test, soil treatment, visual growth inhibition; conditions: soil treatment, 28th day after treatment, read-out: Growth inhibition rate (%) of annual ragweed Measured value
Experimental: Upland field soil was put into a 1/300,000 ha pot, and seeds of annual ragweed (Ambrosia artemisiifolia L.) were sown. On the next day, predetermined amounts of ONEHOPE NYUZAI (tradename), Click (tradename), Mikado (tradename) and a wettable powder containing bicyclopyrone prepared in accordance with a conventional formulation method were diluted with water (in an amount corresponding to 1,000 L/ha) and applied for soil treatment by a small sprayer.
as §1, with “28th” for “31 st”, “annual ragweed” for “velvetleaf”, “11.” for “14.”

[4] = test system: rostrate sesbania (Sesbania rostrata Bremek. & Oberm.); experiment: Test Example 8: pot test, soil treatment, visual growth inhibition; conditions: soil treatment, 28th day after treatment, read-out: Growth inhibition rate (%) of rostrate sesbania Measured value
Experimental: Upland field soil was put into a 1/300,000 ha pot, and seeds of rostrate sesbania (Sesbania rostrata Bremek. & Oberm.) were sown. On the next day, predetermined amounts of ONEHOPE NYUZAI (tradename), Click (tradename), Spectrum (tradename) and Clio (tradename) were diluted with water (in an amount corresponding to 1,000 L/ha) and applied for soil treatment by a small sprayer.
as §1, with “28th” for “31 st”, “rostrate sesbania” for “velvetleaf”, “8.” for “14.”

[5] = test system: guinea grass (Panicum maximum Jacq.); experiment: Test Example 17: pot test, soil and foliar treatment, visual growth inhibition; conditions: Megathyrsus maximus, 29th day after treatment, read-out: Growth inhibition rate (%) of guinea grass Measured value
Experimental: (§2) Upland field soil was put into a 1/1,000,000 ha pot, and seeds of guinea grass (Panicum maximum Jacq.) were sown. When the guinea grass reached 5.2 to 6.0-leaf stage, seeds of guinea grass were further sown in the same pot assuming conditions such that weeds would later grow. Three days later, predetermined amounts of ONEHOPE NYUZAI (tradename), Click (tradename) and Spectrum (tradename) were diluted with water in an amount corresponding to 300 L/ha and applied for soil treatment and for foliar treatment by a small sprayer.
as §1, with “29th” for “31 st”, “guinea grass” for “velvetleaf”, “17.” for “14.”

[6] = test system: Japanese millet (Echinochloa utilis Ohwi et Yabuno); experiment: Test Example 13: pot test, soil and foliar treatment, visual growth inhibition; conditions: soil treatment and foliar treatment, 28th day after treatment, read-out: Growth inhibition rate (%) of Japanese millet Measured value
Experimental: Upland field soil was put into a 1/1,000,000 ha pot, and seeds of Japanese millet (Echinochloa utilis Ohwi et Yabuno) were sown. When the Japanese millet reached 3.8 to 4.0-leaf stage, seeds of Japanese millet were further sown in the same pot. On the next day, predetermined amounts of ONEHOPE NYUZAI (tradename), Click (tradename) and a wettable powder containing bicyclopyrone prepared in accordance with a conventional formulation method were diluted with water (in an amount corresponding to 1,000 L/ha) and applied for soil treatment and for foliar treatment by a small sprayer.
as §1, with “28th” for “31 st”, “Japanese millet” for “velvetleaf”, “13.” for “14.”

[7] = test system: guinea grass (Panicum maximum Jacq.); experiment: Test Example 15: pot test, soil and foliar treatment, visual growth inhibition; conditions: Megathyrsus maximus, 31st day after treatment, read-out: Growth inhibition rate (%) of guinea grass Measured value
Experimental: as §2, with “On the next day,” for “Three days later,”, “Click (tradename), Spectrum” for “Click”, “Cadou” for “Spectrum”
as §1, with “guinea grass” for “velvetleaf”, “15.” for “14.”

| Structure (SMILES) | inhibition at 400 g/ha ([1]; 400 g/ha) | inhibition at 1200 g/ha ([1]; 1200 g/ha) | inhibition at 500 g/ha ([2]; 500 g/ha) | inhibition at 200 g/ha ([3]; 200 g/ha) | inhibition at 2000 g/ha ([4]; 2000 g/ha) | inhibition at 500 g/ha ([5]; 500 g/ha) | inhibition at 250 g/ha ([6]; 250 g/ha) | inhibition at 400 g/ha ([7]; 400 g/ha) | inhibition at 1200 g/ha ([7]; 1200 g/ha) | inhibition at 20 g/ha ([1]; 20 g/ha) | inhibition at 60 g/ha ([1]; 60 g/ha) | inhibition at 30 g/ha ([2]; 30 g/ha) | inhibition at 100 g/ha ([3]; 100 g/ha) | inhibition at 10 g/ha ([4]; 10 g/ha) | inhibition at 30 g/ha ([5]; 30 g/ha) | inhibition at 15 g/ha ([6]; 15 g/ha) | inhibition at 20 g/ha ([7]; 20 g/ha) | inhibition at 60 g/ha ([7]; 60 g/ha) |
| --- | --- | --- | --- | --- | --- | --- | --- | --- | --- | --- | --- | --- | --- | --- | --- | --- | --- | --- |
| CCNc1nc(Cl)nc(NC(C)(C)C)n1 [Terbuthylazine, N^2-tert-butyl-6-chloro-N^4-ethyl-1,3,5-triazine-2,4-diamine] | 0% | 0% | 18% | 20% | 0% | 0% | 0% | 5% | 23% |  |  |  |  |  |  |  |  |  |
| COc1cc(OC)nc(NC(=O)NS(=O)(=O)c2ncccc2C(=O)N(C)C)n1 [Nicosulfuron, 2-(4,6-dimethoxypyrimidin-2-ylcarbamoylsulfamoyl)-N,N-dimethylnicotinamide] |  |  |  |  |  |  |  |  |  | 3% | 11% | 60% | 0% | 0% | 38% | 55% | 46% | 83% |
